Results from patent publication EP0895778A2, “Cosmetic composition” (Ajinomoto Co., Inc., priority 1997, dated 1999).
Where a name gives a salt, the structure may show the parent alone.

Experiments:
skin = format: in vivo, New Zealand white rabbits; conditions: 0.3 ml of aqueous 1 % solution, patch 24 hours, observed 24 hours; four male rabbits
Protocol: (§1) The primary irritation of the skin and ocular mucous membranes by some test compounds mentioned below was checked according to the test methods mentioned below.
A patch test plaster, into which 0.3 ml of an aqueous 1 % solution of a test compound had been infiltrated, was airtightly stuck on each of four male New Zealand white rabbits and kept as such for 24 hours. […] The compounds tested were evaluated on the basis of the following criteria.

ocular mucous membranes = format: in vivo, New Zealand white rabbits; conditions: 0.1 ml aqueous solution dropped into eyelid bag, checked 24 hours after; four male rabbits
Protocol: as §1
The lower eyelids of each of four male New Zealand white rabbits were formed into bags, into which was dropped 0.1 ml of an aqueous surfactant solution, and the upper and lower eyelids were lightly ligated. 24 hours after the dropping, the irritation of the ocular mucous membranes of each rabbit was checked according to the Draize's points mentioned below. The compound tested was evaluated on the basis of the following criteria.

Row | SMILES | Primary Skin Irritation (skin) | Primary Mucous Membrane Irritation (ocular mucous membranes)
1 | CCCCCCCCCCC(O)CN[C@@H](CCCNC(=N)N)C(=O)O.Cl (stereo partly drawn) [Compound of Production Example 7, N-(2-hydroxydodecyl)-L-arginine hydrochloride] | Minor (Less than 2) | Minor (Less than 10)
2 | CCCCCCCCCCCCCCCCCC[N+](C)(C)C.[Cl-] [Stearyltrimethylammonium Chloride, reference compound] | Heavy (4 or more) | Moderate (20 to less than 50)
3 | CCCCCCCCCCCCOCC(O)CNCCCC[C@H](N)C(=O)O (stereo partly drawn) [Compound of Production Example 5, Nε-(2-hydroxy-3-dodecyloxy)propyl-L-lysine hydrochloride] | Minor (Less than 2) | Minor (Less than 10)
